These results are taken from ChEMBL document CHEMBL4138232, “O2-(2,4-dinitrophenyl)diazeniumdiolates derivatives: Design, synthesis, cytotoxic evaluation and reversing MDR in MCF-7/ADR cells” (Eur J Med Chem, 2018).

Molecules are shown by their SMILES.

Data set [1] has as its system HCT-116. Description: Antiproliferative activity against human HCT116 cells after 48 hrs by MTT assay relative to control. Format: functional, cell-based. As to conditions: HCT-116, 48 h.
The target of data set [2] is T1, Glutathione S-transferase P (Homo sapiens, UniProt P09211). Description: Prodrug activation in human HCT116 cells assessed as GST-Pi-mediated NO release at 5 uM after 24 hrs in presence of GST-Pi inhibitor etacrynic acid by nitrate reductase assay. Format: cell-based.
A short description of data set [3]: Glutathione reactivity in pH 7.4 PBS buffer assessed as parent compound remaining at 0.1 mM after 1 hr in presence of 2 mM GSH by HPLC analysis. Format: physicochemical. The note with it: PBS buffer with 2 mM glutathione (GSH), read-out: Stability.
Data set [4] can be described thus: Selectivity ratio of IC50 for human MCF10A cells to IC50 for human MDA-MB-231 cells. Format: toxicity. As to conditions: MCF10A cells versus MDA-MB-231 cells, read-out: Ratio IC50.
Data set [5] is described as follows: Selectivity ratio of IC50 for human HCT116 cells to IC50 for human MDA-MB-231 cells. Format: functional.
Data set [6] in a line: Selectivity ratio of IC50 for human U2OS cells to IC50 for human MDA-MB-231 cells. Format: functional.
The nature of data set [7]: Cytotoxicity against ADR-sensitive human MCF7 cells assessed as inhibition of cell viability at 10 uM after 48 hrs by MTT assay relative to control. Format: cell-based. The note with it: read-out: INH.
The target in data set [8] is T1, Glutathione S-transferase P. Description: Prodrug activation in human HCT116 cells assessed as GST-Pi-mediated NO release at 5 uM after 24 hrs by nitrate reductase assay. Format: cell-based.
Data set [9] concerns HCT-116. Description: Cytotoxicity against human HCT116 cells overexpressing GST-Pi assessed as inhibition of cell viability at 10 uM after 48 hrs by MTT assay relative to control. Format: functional. As to conditions: HCT-116, 48 h.
In data set [10] the target is T1, Glutathione S-transferase P. Description: Prodrug activation in human HCT116 cells assessed as GST-Pi-mediated NO release at 5 uM after 24 hrs in presence of NO scavenger carboxy-PTIO by nitrate reductase assay. Format: cell-based.
For another data set, the system named is U2OS. Description: Antiproliferative activity against human U2OS cells after 48 hrs by MTT assay relative to control. Format: functional, cell-based.
For data set [11], the system named is HCT-116. Description: Growth inhibition of human HCT116 cells at 5 uM after 24 hrs in presence of NO scavenger carboxy-PTIO by MTT assay relative to control. Format: functional. The note with it: HCT-116, 24 h, read-out: GI.
The nature of data set [12]: Selectivity ratio of IC50 for human A549 cells to IC50 for human MDA-MB-231 cells. Format: functional.
Another data set relates to A549. Description: Antiproliferative activity against human A549 cells after 48 hrs by MTT assay relative to control. As to conditions: A549, 48 h. Format: functional, cell-based.
The subject of another data set is MDA-MB-231. Description: Antiproliferative activity against human MDA-MB-231 cells after 48 hrs by MTT assay relative to control. Format: functional, cell-based. As to conditions: MDA-MB-231, 48 h.
The next data set concerns MCF7. Description: Cytotoxicity against ADR-sensitive human MCF7 cells assessed as inhibition of cell viability after 48 hrs by MTT assay. Format: cell-based. As to conditions: MCF7, 48 h.
In data set [13] the test system is HCT-116. Description: Growth inhibition of human HCT116 cells at 5 uM after 24 hrs by MTT assay relative to control. Format: functional. As to conditions: HCT-116, 24 h, read-out: GI.
The species entered for another data set is Homo sapiens. Description: Inhibition of MDR in human MCF7/ADR cells assessed as potentiation of adriamycin-induced antiproliferative activity by measuring fold reduction in adriamycin IC50 at 10 uM after 48 hrs by MTT assay. Format: cell-based.
The next data set deals with MCF-10A. Description: Antiproliferative activity against human MCF10A cells after 48 hrs by MTT assay relative to control. Format: cell-based.
The subject of data set [14] is HCT-116. Description: Growth inhibition of human HCT116 cells at 5 uM after 24 hrs in presence of GST-Pi inhibitor etacrynic acid by MTT assay relative to control. The note with it: HCT-116, 24 h, read-out: GI. Format: functional.

T1 sequence (P09211 whole entry): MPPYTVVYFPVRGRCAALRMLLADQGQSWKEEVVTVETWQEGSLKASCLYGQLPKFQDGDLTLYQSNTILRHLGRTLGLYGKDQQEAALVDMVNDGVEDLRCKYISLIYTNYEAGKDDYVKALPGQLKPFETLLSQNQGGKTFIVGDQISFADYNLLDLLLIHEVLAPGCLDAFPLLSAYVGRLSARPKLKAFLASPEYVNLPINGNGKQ

As to `COc1cc(C2CC(c3cccc(Oc4cc(O/N=[N+](\[O-])N5CCCCC5)c([N+](=O)[O-])cc4[N+](=O)[O-])c3)=NN2C(C)=O)cc(OC)c1OC` (stereo unspecified), the IC50 came to 1.06 µM in the data set with HCT-116 [1]; 7.64 µM in the data set with U2OS; 1.15 µM in the data set on A549; 0.94 µM in the data set on MDA-MB-231; 17.7 µM in the data set on MCF7; 10.5 µM with MCF-10A. Further, the Drug metabolism result is reported as “Metabolite_Notdetected” in data set [2], “Metabolite_Detected” in data set [8] and “Metabolite_Notdetected” in [10]. Further, in data set [3], the remaining at 1 h, 100 µM amounted to 80%. The selectivity ratio in data set [4] is 11.2. Besides, the entries for the “Ratio IC50” value in data set [5], in [6] and in data set [12] were 1.1, 8.1 and 1.2, respectively. Also, the cytotoxicity at 48 h, 10 µM in data set [7] was 26.4%. In addition, the inhibition at 10 µM with HCT-116 [9] came out at 80.8%. The inhibition of growth at 5 µM in the data set on HCT-116 [11] is 7.1%; with HCT-116 [13], 74.9%. In addition, the fold change (FC) in the data set listed under Homo sapiens amounted to 75.3.

Turning to `COc1ccc(C2CC(c3cccc(Oc4cc(O/N=[N+](\[O-])N5CCCCC5)c([N+](=O)[O-])cc4[N+](=O)[O-])c3)=NN2C(C)=O)cc1` (stereo unspecified), the IC50 in the data set with HCT-116 [1] was determined as 4.14 µM; in the data set on U2OS, 7.49 µM; with A549 it was 4.7 µM; in the data set on MDA-MB-231, 5.68 µM; in the data set on MCF7, 27.6 µM; in the data set with MCF-10A, 46.9 µM. Also, the Drug metabolism entry in data set [2] and in data set [10] was “Metabolite_Notdetected” throughout. The selectivity ratio in data set [4] was found to be 8.2. For the same compound, the entries for the “Ratio IC50” value in data set [5], in data set [6] and in data set [12] were 0.7, 1.7 and 1.5, respectively. The cytotoxicity at 48 h, 10 µM in [7] stood at 15.1%. Moreover, the inhibition of growth at 5 µM worked out at 14.8% in the data set with HCT-116 [14] and 67.9% with HCT-116 [13]. Further, the inhibition at 10 µM in the data set on HCT-116 [9] was 80.4%. For the same compound, the fold change (FC) in the data set listed under Homo sapiens came to 61.9.
